IC50 data for 28 compounds are collected here from patent US9187455B2, “Substituted pyridazines as PDE10A inhibitors” (Hoffmann-La Roche Inc., priority 2009, dated 2015).

Structures are written as SMILES.

Usually IC50 stands for the concentration that gives 50% inhibition.

The target in this experiment is T1, PDE10A2 (Homo sapiens, UniProt Q9Y233).
T1 construct: residues serine 449 to aspartate 789; His6 (H6) with Gateway linker and thrombin cleavage site (N, cleaved yes); made in house; host or cells: E. coli BL21(DE3) pLysS
T1 sequence (Q9Y233 715-1055): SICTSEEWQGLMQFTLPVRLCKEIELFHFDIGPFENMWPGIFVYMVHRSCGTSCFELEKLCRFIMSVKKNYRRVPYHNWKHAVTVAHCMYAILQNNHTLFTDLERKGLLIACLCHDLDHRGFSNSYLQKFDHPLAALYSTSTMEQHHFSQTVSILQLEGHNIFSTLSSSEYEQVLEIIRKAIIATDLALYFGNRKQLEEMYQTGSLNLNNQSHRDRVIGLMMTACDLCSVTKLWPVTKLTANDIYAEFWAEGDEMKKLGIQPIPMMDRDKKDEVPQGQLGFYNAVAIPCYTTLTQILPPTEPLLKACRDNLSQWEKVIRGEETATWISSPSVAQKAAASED
In words: PDE10A2 Scintillation Proximity Assay (SPA), [3H]-cGMP hydrolysis. The class given is biochemical. The following applies: catalytic domain of human PDE10A2 (S449-D789), 0.25 nM enzyme, 50 nM cGMP + 50 nM [3H]-cGMP, 30 minutes at room temperature; read-out: PDE10A2 inhibition IC50. Here is the method: The following tests were carried out in order to determine the activity of the compounds of the present invention. PDE10 activity of the compounds of the present invention is determined using a Scintillation Proximity Assay (SPA)-based method similar to the one previously described (Fawcett, L. et al., ProcNatl Acad Sci USA (2000) 97(7):3702-3707).
PDE10A1 and PDE10A2 are two splice variants of PDE10A. There are these 2 splice variants known, which differ in the N-terminal part of the protein. The catalytic domains of PDE10A1 and PDE10A2 are identical. The assay for PDE10A2 described below is therefore also representative for PDE10A1 and also for PDE10A in general.
The PDE10A2 assay was performed in a two step procedure in 96-well micro titer plates. The reaction mixture of 80 μl contained 20 mM HEPES/10 mM MgCl2/[…] (pH 7.5), 50 nM cGMP (Sigma) and 50 nM [^3H]-cGMP (GE Healthcare), 0.25 nM PDE10A2 with or without a specific test compound. A range of concentrations of the potential inhibitor was used to generate data for calculating the concentration of inhibitor resulting in 50% of the effect (e.g. IC50, the concentration of the competitor inhibiting PDE10A2 activity 50%). Non-specific activity was tested without the enzyme. The reaction was initiated by addition of the substrate solution (cGMP and [^3H]-cGMP) and allowed to progress for 30 minutes at room temperature. The reaction was terminated by transferring 50 μl of the reaction mixture into an OptiPlate (Perkin Elmer) containing 25 μl of YSi-SPA scintillation beads (GE Healthcare) in 18 mM zinc sulphate solution (stop reagent). After 1 h under shaking, the plate was centrifuged one minute at 1000 rpm to allow beads to settle. Afterwards, radioactive counts were measured on a Perkin Elmer TopCount Scintillation plate reader.
The catalytic domain of human PDE10A2, residues serine 449 to aspartate 789, was amplified by PCR using cDNA (Origene) and the oligonucleotides 5′-GGGGACAAGTTTGT […]-3′ (with AttB1 recombination site in bold and thrombin protease cleavage site in italics) and 5′-[…]-3′ (with AttB2 recombination site in bold) which conferred Gateway recombination sites. The PCR product was used in a BP recombination reaction with pDONR221 to generate pENTR Thm-PDE10A2(S449-D789) which was DNA sequence verified and then used in an LR recombination reaction with a Gateway modified version of pET11a. The resulting expression vector, placT7.2H6-(gwl)-Thm-PDE10A2(S449-D789) was DNA sequence confirmed and transformed into E. coli strain BL21(DE3) pLysS and recombinant protein was produced in TB medium at 20° C. by induction to a final IPTG concentration of 0.5 mM at an optical density of 1.0 at 600 nm for 20 hours. About 30% of the protein was in the soluble fraction of the cell homogenate. The protein was purified using sequential chromatography on Ni-NTA and HiTrapQ/HiTrapS. After thrombin digest at room temperature a HiTrapChelating/HiTrap Benzamindin chromatography removed impurities, uncleaved protein and thrombin. Final purification of PDE10A2(S449-D789) was performed on a Superdex 75 size exclusion chromatography equilibrated with 25 mM HEPES pH 8.4, 0.15 M NaCl. The yield of pure protein was 2 mg/liter of culture volume is relatively low. The purity of the protein was >95%, monomeric and monodisperse as shown by SDS-PAGE, HPLC and analytical ultracentrifugation.
In general terms: Scintillation proximity formats need no separation of bound from free tracer.
Consider `O=c1ccn(-c2cncc(Cl)c2)nc1-c1ccnn1-c1ccnc2ccc(F)cc12` [Example 52, 1-(5-Chloro-pyridin-3-yl)-3-[2-(6-fluoro-quinolin-4-yl)-2H-pyrazol-3-yl]-1H-pyridazin-4-one], for which the IC50 came to 177 nM.
With `O=c1ccn(-c2cncc(Cl)c2)nc1-c1ccnn1-c1cccc(Cl)c1` [Example 53, 3-[2-(3-Chloro-phenyl)-2H-pyrazol-3-yl]-1-(5-chloro-pyridin-3-yl)-1H-pyridazin-4-one], the IC50 worked out at 65 nM.
The value for `O=c1ccn(-c2ccnc(Cl)c2)nc1-c1ccnn1-c1ccnc2ccccc12` [Example 54, 1-(2-Chloro-pyridin-4-yl)-3-(2-quinolin-4-yl-2H-pyrazol-3-yl)-1H-pyridazin-4-one] was 66 nM.
Take `O=c1ccn(-c2ccnc(Cl)c2)nc1-c1ccnn1-c1ccnc2ccc(F)cc12` [Example 55, 1-(2-Chloro-pyridin-4-yl)-3-[2-(6-fluoro-quinolin-4-yl)-2H-pyrazol-3-yl]-1H-pyridazin-4-one]: the IC50 amounted to 122 nM.
With `O=c1ccn(-c2ccnc(Cl)c2)nc1-c1ccnn1-c1cccc(Cl)c1` [Example 56, 3-[2-(3-Chloro-phenyl)-2H-pyrazol-3-yl]-1-(2-chloro-pyridin-4-yl)-1H-pyridazin-4-one] the figure was 50 nM.
Regarding `O=c1ccn(-c2ccnc(Cl)c2)nc1-c1ccnn1-c1ccnc(Cl)c1` [Example 57, 1-(2-Chloro-pyridin-4-yl)-3-[2-(2-chloro-pyridin-4-yl)-2H-pyrazol-3-yl]-1H-pyridazin-4-one], the IC50 was 1540 nM.
As to `O=c1ccn(-c2ccnc(Cl)c2)nc1-c1ccnn1-c1cccc2ncccc12` [Example 58, 1-(2-Chloro-pyridin-4-yl)-3-(2-quinolin-5-yl-2H-pyrazol-3-yl)-1H-pyridazin-4-one], the IC50 came to 89 nM.
The value for `O=c1ccn(-c2ccnc(Cl)c2)nc1-c1ccnn1-c1cccc2cnccc12` [Example 59, 1-(2-Chloro-pyridin-4-yl)-3-(2-isoquinolin-5-yl-2H-pyrazol-3-yl)-1H-pyridazin-4-one] was 220 nM; that for `O=c1ccn(-c2cncc(Cl)c2)nc1-c1ccnn1-c1cccc2ncccc12` [Example 60, 1-(5-Chloro-pyridin-3-yl)-3-(2-quinolin-5-yl-2H-pyrazol-3-yl)-1H-pyridazin-4-one] was 78 nM; that for `O=c1ccn(-c2cncc(Cl)c2)nc1-c1ccnn1-c1ccnc2ccc(Cl)cc12` [Example 61, 1-(5-Chloro-pyridin-3-yl)-3-[2-(6-chloro-quinolin-4-yl)-2H-pyrazol-3-yl]-1H-pyridazin-4-one] was 220 nM.
With `O=c1ccn(-c2ccnc(Cl)c2)nc1-c1ccnn1-c1ccnc2ccc(Cl)cc12` [Example 62, 1-(2-Chloro-pyridin-4-yl)-3-[2-(6-chloro-quinolin-4-yl)-2H-pyrazol-3-yl]-1H-pyridazin-4-one] the figure was 154 nM.
With `O=c1ccn(-c2ccnc(Cl)c2)nc1-c1ccnn1-c1ccccc1F` [Example 63, 1-(2-Chloro-pyridin-4-yl)-3-[2-(2-fluoro-phenyl)-2H-pyrazol-3-yl]-1H-pyridazin-4-one] the figure was 78 nM; with `O=c1ccn(-c2cncc(Cl)c2)nc1-c1ccnn1-c1ccccc1F` [Example 64, 1-(5-Chloro-pyridin-3-yl)-3-[2-(2-fluoro-phenyl)-2H-pyrazol-3-yl]-1H-pyridazin-4-one], 148 nM; with `O=c1ccn(-c2cncc3ccccc23)nc1-c1ccnn1-c1ccccc1F` [Example 65, 3-[2-(2-Fluoro-phenyl)-2H-pyrazol-3-yl]-1-isoquinolin-4-yl-1H-pyridazin-4-one], 144 nM.
For the compound `O=c1ccn(-c2cncc3ccccc23)nc1-c1ccnn1-c1cccc(Cl)c1` [Example 66, 3-[2-(3-Chloro-phenyl)-2H-pyrazol-3-yl]-1-isoquinolin-4-yl-1H-pyridazin-4-one], the IC50 was 100 nM.
The value for `O=c1ccn(-c2cncc(C(F)(F)F)c2)nc1-c1ccnn1-c1cccc(Cl)c1` [Example 67, 3-[2-(3-Chloro-phenyl)-2H-pyrazol-3-yl]-1-(5-trifluoromethyl-pyridin-3-yl)-1H-pyridazin-4-one] was 56 nM.
The value for `O=c1ccn(-c2cncc(C(F)(F)F)c2)nc1-c1ccnn1-c1ccccc1F` [Example 68, 3-[2-(2-Fluoro-phenyl)-2H-pyrazol-3-yl]-1-(5-trifluoromethyl-pyridin-3-yl)-1H-pyridazin-4-one] was 178 nM.
The value for `O=c1ccn(-c2ccnc(Cl)c2)nc1-c1ccnn1-c1ccnc2cc(Cl)ccc12` [Example 69, 1-(2-Chloro-pyridin-4-yl)-3-[2-(7-chloro-quinolin-4-yl)-2H-pyrazol-3-yl]-1H-pyridazin-4-one] was 57 nM; that for `O=c1ccn(-c2cncc(Cl)c2)nc1-c1ccnn1-c1ccnc2cc(Cl)ccc12` [Example 70, 1-(5-Chloro-pyridin-3-yl)-3-[2-(7-chloro-quinolin-4-yl)-2H-pyrazol-3-yl]-1H-pyridazin-4-one] was 253 nM; that for `O=c1ccn(-c2cncc(C(F)(F)F)c2)nc1-c1ccnn1-c1ccnc2ccccc12` [Example 71, 3-(2-Quinolin-4-yl-2H-pyrazol-3-yl)-1-(5-trifluoromethyl-pyridin-3-yl)-1H-pyridazin-4-one] was 56 nM.
On to `O=c1ccn(-c2ccncc2)nc1-c1ccnn1-c1ccnc2ccc(Cl)cc12` [Example 72, 3-[2-(6-Chloro-quinolin-4-yl)-2H-pyrazol-3-yl]-1-pyridin-4-yl-1H-pyridazin-4-one], for which the IC50 was 78 nM.
For the compound `O=c1ccn(-c2ccncc2)nc1-c1ccnn1-c1cncc2ccccc12` [Example 73, 3-(2-Isoquinolin-4-yl-2H-pyrazol-3-yl)-1-pyridin-4-yl-1H-pyridazin-4-one], the IC50 was 188 nM.
The value for `O=c1ccn(-c2cncc(OC(F)F)c2)nc1-c1ccnn1-c1ccccc1F` [Example 74, 1-(5-Difluoromethoxy-pyridin-3-yl)-3-[2-(2-fluoro-phenyl)-2H-pyrazol-3-yl]-1H-pyridazin-4-one] was 27 nM; that for `O=c1ccn(-c2ccc(C(F)(F)F)nc2)nc1-c1ccnn1-c1ccccc1F` [Example 75, 3-[2-(2-Fluoro-phenyl)-2H-pyrazol-3-yl]-1-(6-trifluoromethyl-pyridin-3-yl)-1H-pyridazin-4-one] was 120 nM.
The value for `N#Cc1ccc(-n2ccc(=O)c(-c3ccnn3-c3ccccc3F)n2)cn1` [Example 76, 5-{3-[2-(2-Fluoro-phenyl)-2H-pyrazol-3-yl]-4-oxo-4H-pyridazin-1-yl}-pyridine-2-carbonitrile] was 619 nM.
With `O=c1ccn(-c2ccc(Cl)nc2)nc1-c1ccnn1-c1ccccc1F` [Example 77, 1-(6-Chloro-pyridin-3-yl)-3-[2-(2-fluoro-phenyl)-2H-pyrazol-3-yl]-1H-pyridazin-4-one] the figure was 183 nM; with `O=c1ccn(-c2cnc3ccccc3c2)nc1-c1ccnn1-c1ccccc1F` [Example 78, 3-[2-(2-Fluoro-phenyl)-2H-pyrazol-3-yl]-1-quinolin-3-yl-1H-pyridazin-4-one], 38 nM.
On to `Cc1cc(-n2ccc(=O)c(-c3ccnn3-c3ccnc4ccccc34)n2)ccn1` [Example 79, 1-(2-Methyl-pyridin-4-yl)-3-(2-quinolin-4-yl-2H-pyrazol-3-yl)-1H-pyridazin-4-one], for which the IC50 is 12 nM.
